# In US11691984B2, “Compounds and methods for DCAF-mediated protein degradation” (The Scripps Research Institute, priority 2018, dated 2023):
# Residues, ends and D or L forms follow the SMILES beside them. *: point of attachment. Cbz = O=C(OCc1ccccc1)*
# Columns and labels:
# FLAG-FKBP12_NLS [1] = molecular target: T1, FLAG-FKBP12_NLS (Homo sapiens, UniProt P62942); test: Anti-FLAG western blot of stably expressed nuclear FKBP12 (FLAG-FKBP12_NLS) in HEK293T cells; type: cell-based; set-up: expressed in transfected cells; host or cells: HEK293T, MDA-MB-231 and HEK293 DCAF16+/+ and DCAF16-/- clones (lentiviral pCDH-CMV-MCS-EF1-Puro); details: for nuclear FKBP12 (FKBP12_NLS) protein level: 2 μM, 8 or 24 h; for effect of inhibitor on KB02-SLF-mediated loss of FKBP12_NLS: KB02-SLF 1 μM with MG132 10 μM or MLN4924 1 μM
# T1 sequence (P62942 whole entry): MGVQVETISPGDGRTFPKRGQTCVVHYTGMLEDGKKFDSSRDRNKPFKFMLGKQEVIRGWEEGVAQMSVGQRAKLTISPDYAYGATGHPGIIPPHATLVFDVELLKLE
# Description: (§1) FLAG-tagged variants of FKBP12 (FLAG-FKBP12) or (2) FKBP12 with a C-terminal nuclear localization sequence (FLAG-FKBP12_NLS) were then stably expressed in HEK293T cells to provide cell models for evaluating cytosolic- and nuclear-localized E3-mediated degradation pathways, respectively.
# (§2) FLAG-FKBP12 or FLAG-FKBP12_NLS lentivirus was generated by co-transfection of FLAG-FKBP12 or FLAG-FKBP12_NLS, pCMV-dR8.2 and pMD2.G into HEK 293T cells using FuGene 6 transfection reagent (Promega). Virus-containing medium were collected 48 h after transfection, filtered with […] filter, and used to transduce HEK293T and MDA-MB-231 cells in the presence of 10 μg/mL polybrene (Santa Cruz). 72 h after transduction, puromycin (2 μg/mL) was added to cells. HEK293T cells stably expressing FLAG-FKBP12 or FLAG-FKBP12_NLS were obtained after puromycin selection for 7 days. HEK293T cells stably expressing pCDH empty vector were generated in parallel as control.
# shRNA lentivirus was generated by co-transfection of shRNA-containing vector, pCMV-dR8.2 and pMD2.G into HEK 293T cells using FuGene 6 transfection reagent (Promega). Virus-containing medium were collected 48 h after transfection and used to transiently transduce HEK293T cells stably expressing FLAG-FKBP12_NLS for 48 h. Lentiviral shRNAs targeting human DCAF16 or DTL were in pLKO.1 vector and purchased from Sigma. The sequences of shRNAs is described below.
# (§3) Cells were collected and lysed in 1% NP-40 lysis buffer (25 mM Tris-HCl pH 7.4, 150 mM NaCl, 10% glycerol, 1% Nonidet P-40) with complete protease inhibitor cocktail (Roche). Cells were vortexed and sonicated for 5 pulses (40%, 4). The supernatant was collected after centrifugation at 16,000 g for 10 min at 4° C. Protein concentration was determined by DC assay (Bio-Rad). Protein lysate was heated at 95° C. for 5 min in 1× Laemmli sample buffer. Proteins were resolved by 12% or 14% Novex Tris-Glycine Mini Gels (Invitrogen) and transferred to polyvinylidene fluoride (PVDF) membrane (0.2 Bio-Rad). The membrane was blocked with 5% BSA in TBST buffer (0.1% Tween 20, 20 mM Tris-HCl 7.6, 150 mM NaCl) at room temperature for 1 h. The antibody was diluted with fresh 5% BSA in TBST buffer (1:10000 dilution for FLAG, HA and β-Actin, 1:1000 dilution for others) and incubated with membrane (1 h room temperature for FLAG, HA and β-Actin, overnight 4° C. for others). Membrane was washed three times with TBST buffer and incubated with secondary antibody (1:5000 dilution in 5% BSA in TBST) at room temperature for 1 h. Membrane was washed three times with TBST buffer. The chemiluminescence signal in membrane was recorded after developing in ECL or ECL plus western blotting detection reagent using CL-XPosure film (Thermo Scientific). Relative band intensities were quantified using ImageJ.
# [2] = molecular target: T2, HA-DCAF16 and FLAG-FKBP12_NLS (Homo sapiens, UniProt P62942+Q9NXF7); test: Co-immunoprecipitation of HA-DCAF16 with FLAG-FKBP12_NLS (ternary complex) in HEK293T cells; type: cell-based; details: 5 μM, MG132 10 μM, 2 hours
# T2 construct: expressed in transfected cells; host or cells: HEK293T stably expressing FLAG-FKBP12_NLS, transiently transfected with HA-DCAF16 (pRK5)
# T2 sequence (Q9NXF7 whole entry): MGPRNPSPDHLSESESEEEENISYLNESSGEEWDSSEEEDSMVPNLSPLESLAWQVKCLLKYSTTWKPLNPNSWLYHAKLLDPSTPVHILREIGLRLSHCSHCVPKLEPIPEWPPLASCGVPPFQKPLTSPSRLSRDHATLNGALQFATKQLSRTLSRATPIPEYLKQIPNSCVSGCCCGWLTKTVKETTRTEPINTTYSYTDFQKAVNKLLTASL
# T2 sequence (P62942 2-108): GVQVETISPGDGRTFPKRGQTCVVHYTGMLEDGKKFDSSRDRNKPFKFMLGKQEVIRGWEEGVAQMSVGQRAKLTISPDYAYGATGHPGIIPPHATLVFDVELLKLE
# T2 sequence (Q16531 whole entry partner): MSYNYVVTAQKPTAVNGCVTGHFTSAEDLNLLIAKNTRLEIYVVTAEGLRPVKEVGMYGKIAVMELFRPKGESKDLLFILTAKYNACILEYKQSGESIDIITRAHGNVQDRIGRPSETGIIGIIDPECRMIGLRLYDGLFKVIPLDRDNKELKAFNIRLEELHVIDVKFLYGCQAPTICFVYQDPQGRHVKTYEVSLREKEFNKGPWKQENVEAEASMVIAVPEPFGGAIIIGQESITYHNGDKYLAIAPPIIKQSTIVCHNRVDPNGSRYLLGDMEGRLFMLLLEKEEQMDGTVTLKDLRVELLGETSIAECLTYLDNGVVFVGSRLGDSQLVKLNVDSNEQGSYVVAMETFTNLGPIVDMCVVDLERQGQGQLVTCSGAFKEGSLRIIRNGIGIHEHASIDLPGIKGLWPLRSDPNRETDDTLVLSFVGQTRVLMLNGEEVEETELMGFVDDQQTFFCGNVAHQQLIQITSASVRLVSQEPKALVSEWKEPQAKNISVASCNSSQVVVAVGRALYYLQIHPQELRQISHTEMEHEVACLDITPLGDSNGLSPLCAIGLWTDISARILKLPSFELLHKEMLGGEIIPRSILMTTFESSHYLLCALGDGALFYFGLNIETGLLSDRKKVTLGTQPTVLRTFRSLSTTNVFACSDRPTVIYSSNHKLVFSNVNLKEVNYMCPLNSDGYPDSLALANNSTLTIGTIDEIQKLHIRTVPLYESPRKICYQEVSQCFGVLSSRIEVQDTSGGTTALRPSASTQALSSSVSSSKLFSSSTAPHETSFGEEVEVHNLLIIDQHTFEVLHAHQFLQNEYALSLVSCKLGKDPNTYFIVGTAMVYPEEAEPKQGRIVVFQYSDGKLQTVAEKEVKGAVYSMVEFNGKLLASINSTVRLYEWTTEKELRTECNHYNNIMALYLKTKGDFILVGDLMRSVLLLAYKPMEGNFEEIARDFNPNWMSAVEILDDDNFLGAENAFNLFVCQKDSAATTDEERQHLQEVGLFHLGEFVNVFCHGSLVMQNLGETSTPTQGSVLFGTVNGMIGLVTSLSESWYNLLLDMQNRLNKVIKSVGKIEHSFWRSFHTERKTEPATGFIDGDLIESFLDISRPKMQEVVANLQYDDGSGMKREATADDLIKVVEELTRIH
# Experimental: as §3
# Cells were collected and lysed in 1% NP-40 lysis buffer with complete protease inhibitor cocktail on ice for 10 min, followed by 5 pulses of sonication (40%, 4). After centrifugation at 16,000 g for 10 min at 4° C., the supernatant was collected. FLAG affinity gel (20 μL slurry per sample) was incubated with protein lysates at 4° C. for 1 h and washed four times with IP washing buffer. The affinity gel was heated at 95° C. for 10 min in 2× Laemmli sample buffer, followed by western blot analysis.
# HEK293T cells = test: Cell viability assay (Cell Titer Glo); type: cell-based, human; details: 24 hours, read-out: cytotoxicity IC50
# Experimental: HEK293T cells were seeded in 96-well clear bottom white plate (Corning) at 3×10^4 cells per well in 100 μL of DMEM medium and grown for 24 h. The cells were treated with 0.625, 1.25, 2.5, 5, 10, 20 and 40 μM of KB02-SLF or KB02-JQ1 (DMSO stock, final DMEM concentration is 0.1% (v/v)) in 100 μL of DMEM medium for 24 h. 50 μL of Cell Titer Glo reagent (Promega) was added to each well and incubate for 10 min at room temperature. The luminescence was read on CLARIOstar (BMG LAB TECH).
# FLAG-FKBP12_NLS [3] = molecular target: T1, FLAG-FKBP12_NLS; test: Western blot of stably expressed FLAG-FKBP12_NLS in MDA-MB-231 cells; type: cell-based; set-up: expressed in transfected cells; host or cells: HEK293T, MDA-MB-231 and HEK293 DCAF16+/+ and DCAF16-/- clones (lentiviral pCDH-CMV-MCS-EF1-Puro); details: 8 hours; for effect of inhibitor on degradation of FLAG-FKBP12_NLS in MDA-MB-231 cells: KB02-PEG0-SLF, KB02-SLF or KB02-PEG4-SLF 1 μM
# Experimental: as §2, §3
# BRD4 = molecular target: T3, BRD4 (Homo sapiens, UniProt O60885); test: Western blot of endogenous BRD4 in HEK293T cells; type: cell-based; details: 20 μM KB02-JQ1; 10 μM MG132 or 1 μM MLN4924
# T3 construct: degradation of endogenous BRD4 in HEK293T cells; endogenous in cells; host or cells: HEK293T (A10, A16); HEK293 DCAF16+/+ and DCAF16-/- clones (A11)
# Experimental: as §3
# FLAG-FKBP12 = molecular target: T4, FLAG-FKBP12 (Homo sapiens, UniProt P62942); test: Anti-FLAG western blot of stably expressed cytosolic FKBP12 (FLAG-FKBP12) in HEK293T cells; type: cell-based; details: lenalidomide-SLF positive control, 4 or 24 h
# T4 construct: expressed in transfected cells; host or cells: HEK293T (lentiviral transduction, puromycin selection)
# T4 sequence (P62942 whole entry): as the sequence (P62942 whole entry) above
# Description: as §1
# as §2, with “HEK293T cells stably expressing pCDH empty vector were generated in parallel as control.” left out
# Cells were collected and lysed in 1% NP-40 lysis buffer (25 mM Tris-HCl pH 7.4, 150 mM NaCl, 10% glycerol, 1% Nonidet P-40) with complete protease inhibitor cocktail (Roche). […] Protein concentration was determined by DC assay (Bio-Rad). […] The chemiluminescence signal in membrane was recorded after developing in ECL or ECL plus western blotting detection reagent using CL-XPosure film (Thermo Scientific). Relative band intensities were quantified using ImageJ.
smiles,measurement,setting,value
"CCC(=O)N1CCCc2cc(OCC(=O)NCCOCCOCCC(=O)Nc3cccc([C@@H](CCc4ccc(OC)c(OC)c4)OC(=O)[C@@H]4CCCCN4C(=O)C(=O)C(C)(C)CC)c3)ccc21 [C-KB02-SLF, (R)-3-(3,4-dimethoxyphenyl)-1-(3-(3-(2-(2-(2-((1-propionyl-1,2,3,4-tetrahydroquinolin-6-yl)oxy)acetamido)ethoxy)ethoxy)propanamido)phenyl)propyl (S)-1-(3,3-dimethyl-2-oxopentanoyl)piperidine-2-carboxylate]",nuclear FKBP12 (FKBP12_NLS) protein level,FLAG-FKBP12_NLS [1]; HEK293T,Reductions in FKBP12_NLS were not observed
same,co-immunoprecipitation of HA-DCAF16 with FLAG-FKBP12_NLS,[2],DCAF16 was not co-immunoprecipitated
"COc1ccc2c(c1)CCCN2C(=O)CCl [KB02, reference compound]",FKBP12_NLS level in cells treated with the separate components of KB02-SLF,"FLAG-FKBP12_NLS [1]; HEK293T, 1.5 μM, 8 h",FKBP12_NLS was not reduced
same,IC50,HEK293T cells,23 ± 1.2 µM
"CCC(C)(C)C(=O)C(=O)N1CCCC[C@H]1C(=O)O[C@H](CCc1ccc(OC)c(OC)c1)c1cccc(NC(=O)CCOCCOCCOCCOCCNC(=O)COc2ccc3c(c2)CCCN3C(=O)CCl)c1 [KB02-PEG4-SLF, (R)-1-(3-(1-((1-(2-chloroacetyl)-1,2,3,4-tetrahydroquinolin-6-yl)oxy)-2-oxo-6,9,12,15-tetraoxa-3-azaoctadecan-18-amido)phenyl)-3-(3,4-dimethoxyphenyl)propyl (S)-1-(3,3-dimethyl-2-oxopentanoyl)piperidine-2-carboxylate]",co-immunoprecipitation of HA-DCAF16 with FLAG-FKBP12_NLS,[2],co-immunoprecipitated with HA-DCAF16
same,degradation of FLAG-FKBP12_NLS in MDA-MB-231 cells,FLAG-FKBP12_NLS [3]; 1 μM,degradation of stably expressed FLAG-FKBP12_NLS
"CCC(C)(C)C(=O)C(=O)N1CCCC[C@H]1C(=O)O[C@H](CCc1ccc(OC)c(OC)c1)c1cccc(NC(=O)CCOCCOCCNC(=O)CCNC(=O)c2cc(NC(=O)CCl)cc(C(F)(F)F)c2)c1 [KB03-SLF, (R)-1-(3-(1-(3-(2-chloroacetamido)-5-(trifluoromethyl)phenyl)-1,5-dioxo-9,12-dioxa-2,6-diazapentadecan-15-amido)phenyl)-3-(3,4-dimethoxyphenyl)propyl (S)-1-(3,3-dimethyl-2-oxopentanoyl)piperidine-2-carboxylate]",nuclear FKBP12 (FKBP12_NLS) protein level,FLAG-FKBP12_NLS [1]; HEK293T,did not support FKBP12_NLS degradation
same,co-immunoprecipitation of HA-DCAF16 with FLAG-FKBP12_NLS,[2],DCAF16 was not co-immunoprecipitated
"C=CC(=O)N(c1ccc(Br)cc1)c1ccc(C(=O)NCCOCCOCCOCCC(=O)Nc2cccc([C@@H](CCc3ccc(OC)c(OC)c3)OC(=O)[C@@H]3CCCCN3C(=O)C(=O)C(C)(C)CC)c2)cc1 [KB05-SLF, (R)-1-(3-(1-(4-(N-(4-bromophenyl)acrylamido)phenyl)-1-oxo-5,8,11-trioxa-2-azatetradecan-14-amido)phenyl)-3-(3,4-dimethoxyphenyl)propyl (S)-1-(3,3-dimethyl-2-oxopentanoyl)piperidine-2-carboxylate]",nuclear FKBP12 (FKBP12_NLS) protein level,FLAG-FKBP12_NLS [1]; HEK293T,did not support FKBP12_NLS degradation
same,co-immunoprecipitation of HA-DCAF16 with FLAG-FKBP12_NLS,[2],DCAF16 was not co-immunoprecipitated
"CC(C)C[C@@H](C=O)NC(=O)[C@H](CC(C)C)NC(=O)[C@H](CC(C)C)NC(=O)OCc1ccccc1 [MG132, reference compound] (Cbz-Leu-Leu-Leu-aldehyde)",effect of inhibitor on KB02-SLF-mediated loss of FKBP12_NLS,FLAG-FKBP12_NLS [1]; 8 h,blocked
same,effect of inhibitor on KB02-JQ1-mediated BRD4 degradation,BRD4,blocked
same,effect of inhibitor on degradation of FLAG-FKBP12_NLS in MDA-MB-231 cells,FLAG-FKBP12_NLS [3],blocked
"NS(=O)(=O)OC[C@@H]1C[C@@H](n2ccc3c(N[C@H]4CCc5ccccc54)ncnc32)C[C@@H]1O [MLN4924, reference compound]",effect of inhibitor on KB02-SLF-mediated loss of FKBP12_NLS,FLAG-FKBP12_NLS [1]; 8 h,blocked
same,effect of inhibitor on KB02-JQ1-mediated BRD4 degradation,BRD4,blocked
same,effect of inhibitor on degradation of FLAG-FKBP12_NLS in MDA-MB-231 cells,FLAG-FKBP12_NLS [3],blocked
"CCC(C)(C)C(=O)C(=O)N1CCCC[C@H]1C(=O)O[C@H](CCc1ccc(OC)c(OC)c1)c1cccc(NC(=O)CCCC(=O)NCCCCC(=O)Nc2cccc3c2CN(C2CCC(=O)NC2=O)C3=O)c1 (stereo partly drawn) [lenalidomide-SLF, (1R)-3-(3,4-dimethoxyphenyl)-1-(3-(5-((5-((2-(2,6-dioxopiperidin-3-yl)-1-oxoisoindolin-4-yl)amino)-5-oxopentyl)amino)-5-oxopentanamido)phenyl)propyl (2S)-1-(3,3-dimethyl-2-oxopentanoyl)piperidine-2-carboxylate, reference compound]",nuclear FKBP12 degradation,"FLAG-FKBP12_NLS [1]; HEK293T, lenalidomide-SLF positive control, 4 or 24 h",degraded
same,cytosolic FKBP12 degradation,FLAG-FKBP12,degraded
